Values quoted from earlier work in PMC8451327, “Paradoxical Augmentation of Experimental Spondyloarthritis by RORC Inhibition in HLA-B27 Transgenic Rats” (Frontiers in Immunology, 2021).

Assays:
[1] = tested on: psoriatic arthritis (PsA)
[2] = tested on: ankylosing spondylitis (AS)
intestinal inflammation = tested on: intestinal inflammation; parameters: method as in PMID 30972425
normal mice = tested on: normal mice; parameters: method as in PMID 30972425

ixekizumab: interleukin-17A specific monoclonal antibody
Clinical efficacy in PsA [1]: proven clinical efficacy
Clinical efficacy in AS [2]: proven clinical efficacy

COc1ccc2c(n1)CCN(C(=O)C1CC(CC(=O)O)C1)[C@H]2C(=O)Nc1cc(F)c2c(c1)CCC2(C)C (some centres unmarked) [TAK-828F]
Gene expression of IL17A, IL17F and IL-22 (intestinal inflammation): suppressed/decreased
Intestinal inflammation (intestinal inflammation): suppressed
Th17 and Th17/Th1 cell population in mesenteric lymph nodes (intestinal inflammation): significantly reduced
Numbers of Th17 cells and ILC3s in the lamina propria (normal mice): did reduce

Secukinumab: anti-IL-17A mAb
Signs and symptoms of psoriatic arthritis [1]: reduced
Signs and symptoms of ankylosing spondylitis [2]: reduced
